Target: Endothelin receptor type B (Sus scrofa) (UniProt P35463)
Experiment: Binding affinity against endothelin B receptor in porcine cerebellar tissue

Chain of Endothelin receptor type B (Sus scrofa) (P35463 whole entry, looked up): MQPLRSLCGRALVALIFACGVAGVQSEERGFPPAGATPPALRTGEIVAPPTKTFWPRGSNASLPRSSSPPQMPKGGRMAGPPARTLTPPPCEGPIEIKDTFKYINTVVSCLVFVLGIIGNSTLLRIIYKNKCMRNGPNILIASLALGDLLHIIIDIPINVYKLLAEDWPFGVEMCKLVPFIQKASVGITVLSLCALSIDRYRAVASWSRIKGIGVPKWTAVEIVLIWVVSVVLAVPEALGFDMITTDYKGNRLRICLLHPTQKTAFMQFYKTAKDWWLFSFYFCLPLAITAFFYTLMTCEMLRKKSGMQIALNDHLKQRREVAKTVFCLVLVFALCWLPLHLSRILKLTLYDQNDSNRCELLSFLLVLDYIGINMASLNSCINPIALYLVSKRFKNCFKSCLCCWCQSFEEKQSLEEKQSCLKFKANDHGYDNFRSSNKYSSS

SMILES | IC50 [nM]
CCCCN(CCCC)C(=O)CN1C[C@H](c2ccc3c(c2)OCCO3)[C@@H](C(=O)O)[C@@H]1c1ccc(CC)cc1 [1-Dibutylcarbamoylmethyl-4-(2,3-dihydro-benzo[1,4]dioxin-6-yl)-2-(4-ethyl-phenyl)-pyrrolidine-3-carboxylic acid] | 7700
CCCCN(CCCC)C(=O)CN1C[C@H](c2ccc3c(c2)CCO3)[C@@H](C(=O)O)[C@@H]1c1ccc(CC)cc1 [1-Dibutylcarbamoylmethyl-4-(2,3-dihydro-benzofuran-5-yl)-2-(4-ethyl-phenyl)-pyrrolidine-3-carboxylic acid] | 8130
CCCCN(CCCC)C(=O)CN1C[C@H](c2ccc3c(c2)CCO3)[C@@H](C(=O)O)[C@@H]1c1ccc(C)cc1 [1-Dibutylcarbamoylmethyl-4-(2,3-dihydro-benzofuran-5-yl)-2-p-tolyl-pyrrolidine-3-carboxylic acid] | 12000
CCCCN(CCCC)C(=O)CN1C[C@H](c2ccc3c(c2)OCC3)[C@@H](C(=O)O)[C@@H]1c1ccc(OC)cc1 [1-Dibutylcarbamoylmethyl-4-(2,3-dihydro-benzofuran-6-yl)-2-(4-methoxy-phenyl)-pyrrolidine-3-carboxylic acid] | 960
CCCCN(CCCC)C(=O)CN1C[C@H](c2ccc3c(c2)OCO3)[C@@H](C(=O)O)[C@@H]1c1ccc(F)c(F)c1 [4-Benzo[1,3]dioxol-5-yl-1-dibutylcarbamoylmethyl-2-(3,4-difluoro-phenyl)-pyrrolidine-3-carboxylic acid] | 1040
CCCCN(CCCC)C(=O)CN1C[C@H](c2ccc3c(c2)OCO3)[C@@H](C(=O)O)[C@@H]1c1ccc(OC)c(OC)c1 [4-Benzo[1,3]dioxol-5-yl-1-dibutylcarbamoylmethyl-2-(3,4-dimethoxy-phenyl)-pyrrolidine-3-carboxylic acid] | 300
CCCCN(CCCC)C(=O)CN1C[C@H](c2ccc3c(c2)OCO3)[C@@H](C(=O)O)[C@@H]1c1ccc(OC)c(F)c1 [4-Benzo[1,3]dioxol-5-yl-1-dibutylcarbamoylmethyl-2-(3-fluoro-4-methoxy-phenyl)-pyrrolidine-3-carboxylic acid] | 30
CCCCN(CCCC)C(=O)CN1C[C@H](c2ccc3c(c2)OCO3)[C@@H](C(=O)O)[C@@H]1c1ccc(CC)cc1 [4-Benzo[1,3]dioxol-5-yl-1-dibutylcarbamoylmethyl-2-(4-ethyl-phenyl)-pyrrolidine-3-carboxylic acid] | 1300
CCCCN(CCCC)C(=O)CN1C[C@H](c2ccc3c(c2)OCO3)[C@@H](C(=O)O)[C@@H]1c1ccc(CCC)cc1 [4-Benzo[1,3]dioxol-5-yl-1-dibutylcarbamoylmethyl-2-(4-propyl-phenyl)-pyrrolidine-3-carboxylic acid] | 1130
CCCCN(CCCC)C(=O)CN1C[C@H](c2ccc3c(c2)OCO3)[C@@H](C(=O)O)[C@@H]1c1ccc(C(F)(F)F)cc1 [4-Benzo[1,3]dioxol-5-yl-1-dibutylcarbamoylmethyl-2-(4-trifluoromethyl-phenyl)-pyrrolidine-3-carboxylic acid] | 14300
CCCCN(CCCC)C(=O)CN1C[C@H](c2ccc3c(c2)OCO3)[C@@H](C(=O)O)[C@@H]1c1ccc(C)cc1 [4-Benzo[1,3]dioxol-5-yl-1-dibutylcarbamoylmethyl-2-p-tolyl-pyrrolidine-3-carboxylic acid] | 2140
CCCCN(CCCC)C(=O)CN1C[C@H](c2ccc3occc3c2)[C@@H](C(=O)O)[C@@H]1c1ccc(OC)cc1 [4-Benzofuran-5-yl-1-dibutylcarbamoylmethyl-2-(4-methoxy-phenyl)-pyrrolidine-3-carboxylic acid] | 5080
CCCCN(CCCC)C(=O)CN1C[C@H](c2ccc3c(c2)CCO3)[C@@H](C(=O)O)[C@@H]1c1ccc(OC)cc1 [(2R,3R,4S)-1-Dibutylcarbamoylmethyl-4-(2,3-dihydro-benzofuran-5-yl)-2-(4-methoxy-phenyl)-pyrrolidine-3-carboxylic acid] | 2670

Source: BindingDB's records for doi:10.1021/jm010237l (Abbott Laboratories, 2001)
